Data set [1] is described as follows: Solvent solubility evaluation test (amount dissolved in 100 g of cyclohexanone). The format is physicochemical. How it is done:
<Solvent Solubility Evaluation Test>
The 4,4′-Diacetoxy-3,3′,5,5′-tetra(acetoxymethyl)biphenyl obtained in Example 1 (hereinafter referred to as “Present Compound A”) and 4,4′-di(acetoxy)biphenyl (hereinafter referred to as “Comparative Compound a”) were measured for the amounts dissolved in 100 g of cyclohexanone at 40° C. and 60° C. (hereinunder referred to as “solubility (g)”).

Where [2] appears, read: amount dissolved in 100 g of cyclohexanone at 40° C.
Setting [3] is: amount dissolved in 100 g of cyclohexanone at 60° C.

Structures are written as SMILES.

Take `CC(=O)Oc1ccc(-c2ccc(OC(C)=O)cc2)cc1` [Comparative Compound a, 4,4′-di(acetoxy)biphenyl, reference compound]: the “Solubility” value in data set [1] (setting [2]) turned out to be 9.0 g; in data set [1] (setting [3]), 12.8 g.

As to `CC(=O)OCc1cc(-c2cc(COC(C)=O)c(OC(C)=O)c(COC(C)=O)c2)cc(COC(C)=O)c1OC(C)=O` [Present Compound A, 4,4′-Diacetoxy-3,3′,5,5′-tetra(acetoxymethyl)biphenyl], the melting point – broadly, the temperature of the solid-liquid transition – is 116.2 °C. Further, the “Solubility” value in data set [1] (setting [2]) is listed as 39.4 g. Besides, the “Solubility” value in data set [1] (setting [3]) worked out at 89.8 g.

These data come from patent US11932598B2, “Polyacyloxymethyl-4,4′-acyloxybiphenyl compound” (HONSHU CHEMICAL INDUSTRY CO., LTD., priority 2018, dated 2024).
